Toxic doses and inconclusive results are not listed. Rule as the data show it: active = T/C of 150% or more; inactive = T/C below 125%.
Tested on: L1210 leukemia ip in BDF1 mice, survival T/C
Test: NCI In Vivo Anticancer Drug Screen. Data for tumor model L1210 Leukemia (intraperitoneal) in B6D2F1 (BDF1) mice
Settings: endpoint: mean survival time, higher = longer survival
How it was run: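 Survival endpoint. Drug-treated group vs vehicle group, expressed as T divided by C. Tumor passaged by transplantation.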

[1] = dose: 100.0 mg/kg/injection, schedule: Q04DX003 (ip), vehicle: saline
[2] = dose: 200.0 mg/kg/injection, schedule: Q04DX003 (ip), vehicle: saline
[3] = dose: 400.0 mg/kg/injection, schedule: Q04DX003 (ip), vehicle: saline
[4] = dose: 25.0 mg/kg/injection, schedule: Q01DX009 (ip), vehicle: saline
[5] = dose: 50.0 mg/kg/injection, schedule: Q01DX009 (ip), vehicle: saline
[6] = dose: 100.0 mg/kg/injection, schedule: Q04DX002 (ip), vehicle: Klucel (hydroxypropylcellulose) (HPC)
[7] = dose: 100.0 mg/kg/injection, schedule: Q04DX003 (ip), vehicle: Klucel (hydroxypropylcellulose) (HPC)
[8] = dose: 200.0 mg/kg/injection, schedule: Q04DX003 (ip), vehicle: Klucel (hydroxypropylcellulose) (HPC)
[9] = dose: 400.0 mg/kg/injection, schedule: Q04DX003 (ip), vehicle: Klucel (hydroxypropylcellulose) (HPC)
[10] = dose: 100.0 mg/kg/injection, schedule: Q01DX009 (ip), vehicle: saline with Tween-80
[11] = dose: 200.0 mg/kg/injection, schedule: Q01DX009 (ip), vehicle: saline with Tween-80
[12] = dose: 100.0 mg/kg/injection, schedule: Q01DX009 (ip), vehicle: saline
[13] = dose: 200.0 mg/kg/injection, schedule: Q01DX009 (ip), vehicle: saline
[14] = dose: 400.0 mg/kg/injection, schedule: Q01DX009 (ip), vehicle: saline
[15] = dose: 100.0 mg/kg/injection, schedule: Q01DX001 (ip), vehicle: Klucel (hydroxypropylcellulose) (HPC)
[16] = dose: 200.0 mg/kg/injection, schedule: Q01DX001 (ip), vehicle: Klucel (hydroxypropylcellulose) (HPC)
[17] = dose: 400.0 mg/kg/injection, schedule: Q01DX001 (ip), vehicle: Klucel (hydroxypropylcellulose) (HPC)

Measured: T/C

CCCCCCCCCC1OOC1(C)C (stereo unspecified)
inactive: dose: 50.0 mg/kg/injection, schedule: Q01DX001 (ip), vehicle: water 97 % of control | dose: 100.0 mg/kg/injection, schedule: Q01DX001 (ip), vehicle: water 93 % of control | dose: 200.0 mg/kg/injection, schedule: Q01DX001 (ip), vehicle: water 93 % of control

CC(C)NCC1CCCO1 (stereo unspecified)
inactive: [1] 94 % of control | [2] 94 % of control | [3] 97 % of control

C[Se](=O)O
inactive: dose: 3.13 mg/kg/injection, schedule: Q01DX001 (ip), vehicle: saline 94 % of control | dose: 6.25 mg/kg/injection, schedule: Q01DX001 (ip), vehicle: saline 91 % of control | dose: 12.5 mg/kg/injection, schedule: Q01DX001 (ip), vehicle: saline 88 % of control

CCCCC(CCN1CCCC1)(CNC(=O)CN(CC)CC)c1cccc2ccccc12 (stereo unspecified)
inactive: [4] 94 % of control | dose: 25.0 mg/kg/injection, schedule: Q04DX002 (ip), vehicle: Klucel (hydroxypropylcellulose) (HPC) 103 % of control | [5] 102 % of control | dose: 50.0 mg/kg/injection, schedule: Q04DX002 (ip), vehicle: Klucel (hydroxypropylcellulose) (HPC) 100 % of control | [6] 107 % of control

COC1=NS(=O)(=O)N=C(C)O1
inactive: [7] 91 % of control | [8] 102 % of control | [9] 93 % of control

N/C(=N\N=C\c1c(F)c(F)c(F)c(F)c1F)N[N+](=O)[O-]
inactive: [10] 102 % of control | [11] 97 % of control | dose: 400.0 mg/kg/injection, schedule: Q01DX009 (ip), vehicle: saline with Tween-80 94 % of control

Cc1cc(Cl)nc(Cl)n1
inactive: dose: 25.0 mg/kg/injection, schedule: Q04DX002 (ip), vehicle: saline 88 % of control | dose: 50.0 mg/kg/injection, schedule: Q04DX002 (ip), vehicle: saline 98 % of control | dose: 100.0 mg/kg/injection, schedule: Q04DX002 (ip), vehicle: saline 98 % of control

c1ccc2c[n+](CCCCCCCCCC[n+]3ccc4ccccc4c3)ccc2c1
inactive: dose: 1.0 mg/kg/injection, schedule: Q01DX009 (ip), vehicle: saline 106 % of control | dose: 2.0 mg/kg/injection, schedule: Q01DX009 (ip), vehicle: saline 97 % of control | dose: 4.0 mg/kg/injection, schedule: Q01DX009 (ip), vehicle: saline 92 % of control | dose: 8.0 mg/kg/injection, schedule: Q04DX003 (ip), vehicle: saline 97 % of control | dose: 16.0 mg/kg/injection, schedule: Q04DX003 (ip), vehicle: saline 92 % of control | dose: 32.0 mg/kg/injection, schedule: Q04DX003 (ip), vehicle: saline 89 % of control

C=C(Cl)CN1CCCC(=O)c2ccccc21
inactive: [12] 100 % of control | [13] 94 % of control | [14] 96 % of control

CCOC(=O)C(NC=O)C(=O)OCC
inactive: [4] 101 % of control | [5] 101 % of control | [12] 101 % of control | [13] 103 % of control | [14] 98 % of control

CCNS(=O)(=O)c1ccc(Cl)c([N+](=O)[O-])c1
inactive: [15] 101 % of control | [16] 102 % of control | [17] 107 % of control

O=C(CCCN1CCC2(CC1)C(=O)NCN2c1ccccc1)c1ccc(F)cc1
inactive: dose: 0.78 mg/kg/injection, schedule: Q01DX009 (ip), vehicle: saline 96 % of control | dose: 0.78 mg/kg/injection, schedule: Q04DX003 (ip), vehicle: saline 98 % of control | dose: 1.56 mg/kg/injection, schedule: Q01DX009 (ip), vehicle: saline 105 % of control | dose: 1.56 mg/kg/injection, schedule: Q04DX003 (ip), vehicle: saline 96 % of control | dose: 3.12 mg/kg/injection, schedule: Q01DX009 (ip), vehicle: saline 107 % of control | dose: 3.12 mg/kg/injection, schedule: Q04DX003 (ip), vehicle: saline 105 % of control | dose: 6.25 mg/kg/injection, schedule: Q01DX009 (ip), vehicle: saline 97 % of control | dose: 6.25 mg/kg/injection, schedule: Q04DX003 (ip), vehicle: saline 106 % of control | dose: 12.5 mg/kg/injection, schedule: Q01DX009 (ip), vehicle: saline 92 % of control | dose: 12.5 mg/kg/injection, schedule: Q04DX003 (ip), vehicle: saline 124 % of control | dose: 50.0 mg/kg/injection, schedule: Q04DX003 (ip), vehicle: saline 120 % of control | [2] 93 % of control

CN(C)C(=O)NS(=O)(=O)c1ccc(Cl)cc1
inactive: [7] 91 % of control | [8] 96 % of control | [9] 95 % of control

N#C/C(=C/c1ccc(Cl)cc1)C(=O)O
inactive: dose: 62.5 mg/kg/injection, schedule: Q01DX009 (ip), vehicle: Klucel (hydroxypropylcellulose) (HPC) 115 % of control | [6] 109 % of control | dose: 125.0 mg/kg/injection, schedule: Q01DX009 (ip), vehicle: Klucel (hydroxypropylcellulose) (HPC) 86 % of control | dose: 200.0 mg/kg/injection, schedule: Q04DX002 (ip), vehicle: Klucel (hydroxypropylcellulose) (HPC) 98 % of control | dose: 250.0 mg/kg/injection, schedule: Q01DX009 (ip), vehicle: Klucel (hydroxypropylcellulose) (HPC) 86 % of control

CN(C)C(=O)Nc1ccc(Cl)cc1
inactive: [12] 91 % of control | [1] 93 % of control | [13] 100 % of control | [2] 98 % of control | [3] 101 % of control

Cc1c(CC#N)cc(C)c2c3c([nH]c12)CCCC3
inactive: dose: 50.0 mg/kg/injection, schedule: Q01DX009 (ip), vehicle: Klucel (hydroxypropylcellulose) (HPC) 95 % of control | dose: 100.0 mg/kg/injection, schedule: Q01DX009 (ip), vehicle: Klucel (hydroxypropylcellulose) (HPC) 98 % of control | dose: 200.0 mg/kg/injection, schedule: Q01DX009 (ip), vehicle: Klucel (hydroxypropylcellulose) (HPC) 91 % of control

CNc1c(Cl)c(Cl)cc(Cl)c1Cl
inactive: [10] 104 % of control | dose: 100.0 mg/kg/injection, schedule: Q04DX003 (ip), vehicle: saline with Tween-80 95 % of control | [11] 110 % of control | dose: 200.0 mg/kg/injection, schedule: Q04DX003 (ip), vehicle: saline with Tween-80 114 % of control | dose: 400.0 mg/kg/injection, schedule: Q04DX003 (ip), vehicle: saline with Tween-80 93 % of control

CCC(=O)N1CCN(C(=O)CC)c2ccccc21
inactive: dose: 50.0 mg/kg/injection, schedule: Q01DX001 (ip), vehicle: saline 98 % of control | dose: 100.0 mg/kg/injection, schedule: Q01DX001 (ip), vehicle: saline 104 % of control | dose: 200.0 mg/kg/injection, schedule: Q01DX001 (ip), vehicle: saline 104 % of control | dose: 400.0 mg/kg/injection, schedule: Q01DX001 (ip), vehicle: saline 101 % of control

ClC1=C2C=CC=CC2C(Cl)(c2ccccc2)C2=C1C(Cl)=C1C=CC=CC1C2(Cl)c1ccccc1 (stereo unspecified)
inactive: [15] 106 % of control | [16] 101 % of control | [17] 101 % of control

CCOC(=O)c1ccc(NC(=O)Nc2cc(Cl)ccc2OC)cc1
inactive: [12] 106 % of control | [1] 109 % of control | [13] 92 % of control | [2] 97 % of control | [14] 92 % of control | [3] 92 % of control

Source: PubChem BioAssay AID248 (DTP/NCI, 2004)
